Test results published in the NIST ThermoML archive (doi:10.1016/j.jct.2015.08.024).
± gives the expanded uncertainty stated by the source.

Details: Liquid, Closed cell (Static) method

vapor or sublimation pressure (323.15 K) [kPa] | vapor or sublimation pressure (333.15 K) [kPa] | vapor or sublimation pressure (343.15 K) [kPa] | vapor or sublimation pressure (353.15 K) [kPa] | Structure (SMILES)
344.4 ± 1.6 | 463.2 ± 1.9 | 609.8 ± 2.4 | 789.8 ± 2.9 | FC(F)CC(F)(F)F [1,1,1,3,3-pentafluoropropane]
1177.3 ± 3.7 | 1500.6 ± 4.7 | 1886.8 ± 5.9 | 2342.7 ± 7.3 | CC(F)F [1,1-difluoroethane]
